Experimental data: patent US20110105496A1, “Methods For The Treatment Of Myosin Heavy Chain-Mediated Conditions Using 4,7-Dihydrothieno[2,3-B]Pyridine Compounds” (priority 2005, published 2011)
Where two headings read alike, the source gives them in different places.

Tested on: alpha-MyHC
Test: alpha-MyHC cytoblot process in neonatal rat ventricular myocytes (NRVM)
Assay type: cell-based
Protocol: In vitro activity of each compound is measured using the alpha-MyHC cytoblot process. Briefly, neonatal rat ventricular myocytes (NRVM) at 120,000 cells/ml in HyQ DME/High modified culture media supplemented with 10% charcoal/dextran treated FBS, 0.1% Nutridoma-SP, 1:100 MEM non-essential amino acids, 1:50 MEM amino acids solution w/o L-Gln, 1 mM sodium pyruvate and 1:100 P/S/G, are plated on gelatin coated sterile 384-well plates (Costar 3712) at 6,000 cells per well. Cells are incubated overnight at 37° C. in 5% CO2 100% humidity. Following overnight growth the media is changed to HyQ DME/High modified culture media supplemented with 0.3% Nutridoma-SP, 1:100 MEM non-essential amino acids, 1:50 MEM amino acids solution w/o L-Gln, 1 mM sodium pyruvate and 1:100 P/S/G. Cells are then dosed with serial dilutions of each compound in DMSO. Each concentration in the dose range is dosed in quadruplicate. Dosing is done in such a way so that the final DMSO concentration was 0.44%. Compound dilutions are 3-fold with the final top concentration of 10 uM. […] Following dosing, the cells are incubated for 72 hours at 37° C. in 5% CO2 100% humidity and then processed with the cytoblot method. Briefly, cell media is aspirated and cell monolayers washed with PBS and fixed with 100% methanol for 30 minutes. Fixed cells are then blocked with PBS, 0.05% Tween-20, 1% BSA, for 1 hour. Following blocking, cells are incubated with primary alpha-MyHC-specific antibody antibody (1:30 dilution of BA-G5 hybridoma conditioned media, ATCC HB276) for 1 hour. Following incubation with the primary antibody, cells are washed with PBS, 0.05% Tween-20, 1% BSA and incubated with secondary antibody (1:1000 dilution, goat-anti-mouse HRP, Southern Biotech, 1031-05) for 1 hour. Following incubation with the secondary antibody, wells are washed and incubated in SuperSignal, West Dura HRP-luminescence substrate for 30 seconds under shaking at room temperature. Luminescence is measured using a Packard Fusion plate reader. […] RLU values are converted into per cent fraction of low control and dose responses are fitted to a sigmoidal 4-parameter equation (XLFit, IDBS) where the EC50 and Max Plateau values were extracted. […] Max Plateau is the […] maximum value determined by the dose response fit.

[1] = Table 2 (esters), NRVM, 72 hours, alpha-MyHC cytoblot
[2] = Table 2 (esters), NRVM, 72 hours, maximum of dose response fit
[3] = Table 1, NRVM, 72 hours, alpha-MyHC cytoblot, mean ± spread
[4] = Table 1, NRVM, 72 hours, maximum of dose response fit, low control = vehicle only

| EC50 [3] [nM] | SMILES | Max Plateau [2] | Max Plateau [4] | further results |
| --- | --- | --- | --- | --- |
| 2140 | CCC(=O)C1=C(CC)Nc2sc(C(=O)c3cccc(C(=O)O)c3)c(N)c2C1c1ccccc1 (centres unmarked) [Compound 77] | – | 220.00 ± 10.00 per cent fraction of low control | – |
| 1250 | CC(=O)C1=C(C)Nc2sc(C(=O)c3ccccc3Cl)c(N)c2C1c1ccccc1 (centres unmarked) [Compound 57] | – | 246.00 ± 16.33 per cent fraction of low control | – |
| 361 | COC(=O)c1cccc(C(=O)c2sc3c(c2N)C(c2ccccc2)C(C(C)=O)=C(C)N3)c1 (centres unmarked) [Compound 62] | – | 279.31 ± 67.94 per cent fraction of low control | – |
| 9.84 | CCC(=O)C1=C(CC)Nc2sc(C(=O)c3cccc(C(=O)OC)c3)c(N)c2C1c1ccccc1 (centres unmarked) [Compound 74] | – | 262.81 ± 32.38 per cent fraction of low control | – |
| 3.72 | CCC(=O)C1=C(CC)Nc2sc(C(=O)c3ccc(F)c(F)c3)c(N)c2C1c1cc(F)cc(F)c1 (centres unmarked) [Compound 101] | – | 230.49 ± 17.13 per cent fraction of low control | – |
| 198 | CCCC(=O)C1=C(CCC)Nc2sc(C(=O)c3ccc(Cl)cc3Cl)c(N)c2C1c1ccccc1F (centres unmarked) [Compound 91] | – | 143.39 ± 20.69 per cent fraction of low control | – |
| 50.5 | CCCC(=O)C1=C(CCC)Nc2sc(C(=O)c3cc(Cl)ccc3Cl)c(N)c2C1c1ccccc1F (centres unmarked) [Compound 92] | – | 189.00 ± 25.40 per cent fraction of low control | – |
| 6.77 | CCC(=O)C1=C(CC)Nc2sc(C(=O)c3ccccc3)c(N)c2C1c1ccccc1F (centres unmarked) [Compound 78] | – | 269.77 ± 35.30 per cent fraction of low control | – |
| 97.1 | CC(=O)C1=C(C)Nc2sc(C(=O)c3cccc(F)c3)c(N)c2C1c1ccccc1 (centres unmarked) [Compound 61] | – | 230.65 ± 55.61 per cent fraction of low control | – |
| 129 | CCC(=O)C1=C(CC)Nc2sc(C(=O)c3ccc(Cl)c(Cl)c3)c(N)c2C1c1cccc([N+](=O)[O-])c1 (centres unmarked) [Compound 58] | – | 232.20 ± 56.57 per cent fraction of low control | – |
| 24.2 | CCC(=O)C1=C(CC)Nc2sc(C(=O)c3cc(F)cc(F)c3)c(N)c2C1c1ccccc1 (centres unmarked) [Compound 76] | – | 230.70 ± 23.22 per cent fraction of low control | – |

Second part, the compound before the results:

| SMILES | EC50 [3] [nM] | Max Plateau [2] | Max Plateau [4] | further results |
| --- | --- | --- | --- | --- |
| CCC1=C(C(=O)OCCN)C(c2ccccc2F)c2c(sc(C(=O)c3ccc(Cl)c(Cl)c3)c2N)N1 (centres unmarked) [compound 221] | – | – | – | EC50: 22.7 nM; Max Plateau: 156.50 ± 9.76 |
| CCOC(=O)C1=C(C)Nc2sc(C(=O)c3ccccc3)c(N)c2C1(C)c1ccccc1 (centres unmarked) [Compound 206] | – | – | – | Max Plateau (Table 4, NRVM, 72 hours, maximum of dose response fit): 169.32 ± 23.07 per cent fraction of low control |
| COCCOC(=O)C1=C(C)Nc2sc(C(=O)c3ccc(Cl)c(Cl)c3)c(N)c2C1c1ccccc1 (centres unmarked) [Compound 119] | – | 234.93 per cent fraction of low control | – | EC50 [1]: 142 nM |
| CCC(=O)C1=C(CC)Nc2sc(C(=O)c3cccc(F)c3)c(N)c2C1c1ccccc1 (centres unmarked) [Compound 49] | 14.4 | – | 299.18 ± 42.31 per cent fraction of low control | – |
| CC(C)C(=O)C1=C(C(C)C)Nc2sc(C(=O)c3ccc(Cl)c(Cl)c3)c(N)c2C1c1ccccc1 (centres unmarked) [Compound 46] | – | – | 98.33 ± 4.08 per cent fraction of low control | – |
| CCC1=C(C(=O)OCCOC)C(c2ccnc(F)c2)c2c(sc(C(=O)c3cccc(C#N)c3)c2N)N1 (racemic) [Compound 192] | – | 237.07 ± 13.03 per cent fraction of low control | – | – |
| CCC1=C(C(=O)OC)C(c2cccc(Cl)c2F)c2c(sc(C(=O)c3cccc([N+](=O)[O-])c3)c2N)N1 (centres unmarked) [Compound 156] | – | 243.78 per cent fraction of low control | – | EC50 [1]: 3.69 nM |
| CC(=O)C1=C(C)Nc2sc(C(=O)c3cccc(Br)c3)c(N)c2C1c1ccccc1 (centres unmarked) [Compound 6] | 48.9 | – | 289.34 ± 70.69 per cent fraction of low control | – |
| CCC1=C(C(=O)OC)C(c2ccccc2F)c2c(sc(C(=O)c3cccc([N+](=O)[O-])c3)c2N)N1 (centres unmarked) [Compound 140] | – | 266.63 per cent fraction of low control | – | EC50 [1]: 2.42 nM |
| CCC(=O)C1=C(CC)Nc2sc(C(=O)c3ccc(Cl)c(Cl)c3)c(N)c2C1c1cccc2ccccc12 (centres unmarked) [Compound 85] | – | – | 105.90 ± 6.18 per cent fraction of low control | – |
| CCOC(=O)C1=C(CC)Nc2sc(C(=O)c3cc(Cl)ccc3Cl)c(N)c2C1c1ccccc1 (centres unmarked) [Compound 146] | – | 213.49 per cent fraction of low control | – | EC50 [1]: 4.03 nM |
| CCOC(=O)C1=C(CC)Nc2sc(C(=O)c3cc(C(F)(F)F)cc(C(F)(F)F)c3)c(N)c2C1c1ccccc1 (centres unmarked) [Compound 149] | – | 207.18 per cent fraction of low control | – | EC50 [1]: 11.1 nM |
| CCOC(=O)C1=C(CC)Nc2sc(C(=O)c3cccc(C(=O)O)c3)c(N)c2C1c1ccccc1 (centres unmarked) [Compound 152] | – | 238.69 per cent fraction of low control | – | EC50 [1]: 2910 nM |
| CC(=O)C1=C(C)Nc2sc(C(=O)c3ccc(Cl)c(Cl)c3)c(N)c2C1c1ccc(O)cc1Cl (centres unmarked) [Compound 29] | 15.5 | – | 281.88 ± 32.78 per cent fraction of low control | – |
| CC(=O)C1=C(C)Nc2sc(C(=O)c3ccc(C)c(C)c3)c(N)c2C1c1ccccc1 (centres unmarked) [Compound 8] | 797 | – | 172.29 ± 9.66 per cent fraction of low control | – |
| CC(=O)C1=C(C)Nc2sc(C(=O)c3ccc(Cl)c(Cl)c3)c(N)c2C1c1cc(F)cc(F)c1 (centres unmarked) [Compound 55] | 45.2 | – | 229.93 ± 37.33 per cent fraction of low control | – |
| CCC(=O)C1=C(CC)Nc2sc(C(=O)c3ccc(F)c(F)c3)c(N)c2C1c1ccccc1F (centres unmarked) [Compound 108, 1-[3-amino-2-(3,4 difluoro-benzoyl)-6-ethyl-4-(2 fluoro-phenyl)-4,7 dihydro-thieno[2,3-b]pyridine-5-yl]propan-1-one] | – | – | 266.30 ± 58.14 per cent fraction of low control | – |
| CC(=O)C1=C(C)Nc2sc(C(=O)c3ccc(Cl)c(Cl)c3)c(N)c2C1c1ccc(O)cc1 (centres unmarked) [Compound 23] | 339 | – | 277.53 ± 33.46 per cent fraction of low control | – |
| CCC1=C(C(=O)OC)C(c2c(F)cccc2F)c2c(sc(C(=O)c3ccc(Cl)c(Cl)c3)c2N)N1 (centres unmarked) [Compound 137] | – | 213.90 per cent fraction of low control | – | EC50 [1]: 15.6 nM |
| CCC1=C(C(=O)OC)C(c2ccccc2F)c2c(sc(C(=O)c3cccc(C#N)c3)c2N)N1 (centres unmarked) [Compound 164] | – | 279.90 per cent fraction of low control | – | EC50 [1]: 2.83 nM |
| CCC(=O)C1=C(CC)Nc2sc(C(=O)c3ccc(Cl)c(Cl)c3)c(N)c2C1c1ccccc1C (centres unmarked) [Compound 56] | 42.9 | – | 293.74 ± 50.82 per cent fraction of low control | – |
| CC(=O)C1=C(C)Nc2sc(C(=O)c3ccncc3)c(N)c2C1c1ccccc1 (centres unmarked) [Compound 10] | 2680 | – | 210.00 ± 36.06 per cent fraction of low control | – |
| CC(=O)C1=C(C)Nc2sc(C(=O)c3cccc([N+](=O)[O-])c3)c(N)c2C1c1ccc(C(=O)O)cc1 (centres unmarked) [Compound 9] | – | – | 100.00 ± 0.00 per cent fraction of low control | – |
| CCCCNC(=O)C1=C(C)Nc2sc(C(=O)c3ccc(Cl)c(Cl)c3)c(N)c2C1c1ccccc1 (racemic) [Compound 196] | – | – | – | EC50 (Table 3 (amides), NRVM, 72 hours, alpha-MyHC cytoblot): 334000 nM; Max Plateau (Table 3 (amides), NRVM, 72 hours, maximum of dose response fit): 121.93 ± 25.12 per cent fraction of low control |
| CCC1=C(C(=O)OCCOC)C(c2ccccc2F)c2c(sc(C(=O)c3cccc(C#N)c3)c2N)N1 (racemic) [Compound 178] | – | 258.67 ± 45.31 per cent fraction of low control | – | – |
| CCC1=C(C(=O)OC)C(c2ccc(F)cc2F)c2c(sc(C(=O)c3ccc(Cl)c(Cl)c3)c2N)N1 (centres unmarked) [Compound 153] | – | 234.66 per cent fraction of low control | – | EC50 [1]: 15.3 nM |
| CCC1=C(C(=O)OC)C(c2ccccc2)c2c(sc(C(=O)c3cccc([N+](=O)[O-])c3)c2N)N1 (centres unmarked) [Compound 139] | – | 281.08 per cent fraction of low control | – | EC50 [1]: 6.91 nM |
| CCC(=O)C1=C(CC)Nc2sc(C(=O)c3ccc(Cl)c(Cl)c3)c(N)c2C1c1ccccc1Cl (centres unmarked) [Compound 38] | 16.1 | – | 288.93 ± 52.81 per cent fraction of low control | – |
| CCC1=C(C(=O)OC(C)CC)C(c2ccccc2F)c2c(sc(C(=O)c3ccc(Cl)c(Cl)c3)c2N)N1 (single isomer, unassigned) [Compound 163] | – | 224.85 per cent fraction of low control | – | EC50 [1]: 142 nM |
| CC(=O)C1=C(C)Nc2sc(C(=O)c3ccc(Cl)c(Cl)c3)c(N)c2C1c1ccc(Cl)cc1Cl (centres unmarked) [Compound 52] | – | – | 122.73 ± 20.55 per cent fraction of low control | – |
